Biological target: Histamine H1 receptor (Cavia porcellus, UniProt P31389)
Sequence (P31389 whole entry): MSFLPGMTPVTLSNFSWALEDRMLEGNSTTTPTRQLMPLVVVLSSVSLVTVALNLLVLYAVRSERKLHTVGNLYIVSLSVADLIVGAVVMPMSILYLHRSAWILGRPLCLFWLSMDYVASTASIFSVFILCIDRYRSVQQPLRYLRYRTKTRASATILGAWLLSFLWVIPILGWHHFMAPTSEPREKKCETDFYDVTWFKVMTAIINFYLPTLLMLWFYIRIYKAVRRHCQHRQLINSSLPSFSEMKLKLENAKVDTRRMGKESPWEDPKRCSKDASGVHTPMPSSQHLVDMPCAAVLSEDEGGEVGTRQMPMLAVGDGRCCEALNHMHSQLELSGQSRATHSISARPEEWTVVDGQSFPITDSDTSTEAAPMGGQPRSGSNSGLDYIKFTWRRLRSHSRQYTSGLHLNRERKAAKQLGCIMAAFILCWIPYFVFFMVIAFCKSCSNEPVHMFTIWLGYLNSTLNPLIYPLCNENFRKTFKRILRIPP

Ki [nM]	Structure (SMILES)
12.6	O=C(O)COCCN1CCN(C(c2ccccc2)c2ccc(Cl)cc2)CC1 (configuration not stated)
0.31	Cc1ccc(/C(=C\CN2CCCC2)c2ccccn2)cc1 [Actahist]
